In this experiment the target is T1, BC3310 (Bacillus cereus, UniProt Q81B77).
T1 construct: gene BC_3310; full-length in pTTQ18 with C-terminal RGSHis6 tag, expressed in E. coli DH5alpha deltaacrAB; 12 predicted TM helices; migrates at ~30 kDa
Nature of the experiment: whole-cell ethidium accumulation assay (fluorescence), E. coli expressing BC3310 vs empty vector. The experiment is classed as cell-based. The settings on record: 25 uM ethidium bromide, PBS with 0.4% glucose, pH 7-7.4; CCCP-sensitive efflux.

T1 sequence (Q81B77 entry or part of it): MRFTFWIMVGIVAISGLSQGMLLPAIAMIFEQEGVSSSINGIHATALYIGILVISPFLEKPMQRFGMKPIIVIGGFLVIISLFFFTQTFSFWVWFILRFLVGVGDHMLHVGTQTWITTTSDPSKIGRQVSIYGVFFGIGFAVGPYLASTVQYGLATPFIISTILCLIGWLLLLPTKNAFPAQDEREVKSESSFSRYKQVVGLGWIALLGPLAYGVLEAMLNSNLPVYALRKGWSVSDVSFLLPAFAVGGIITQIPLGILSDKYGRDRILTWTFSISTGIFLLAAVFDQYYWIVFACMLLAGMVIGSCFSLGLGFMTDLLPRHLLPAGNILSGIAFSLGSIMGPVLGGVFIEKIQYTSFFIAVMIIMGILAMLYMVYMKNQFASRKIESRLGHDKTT

As to `CC[n+]1c(-c2ccccc2)c2cc(N)ccc2c2ccc(N)cc21` [ethidium bromide], the “whole-cell ethidium accumulation assay (fluorescence), E. coli expressing BC3310” value was “showed less fluorescence compared to the empty vector control (pTTQ18), thereby implying that BC3310 exports”.

Source of the values: publication PMC4601019, “Bacillus cereus eﬄux protein BC3310 – a multidrug transporter of the unknown major facilitator family, UMF-2” (Frontiers in Microbiology, 2015).
